The source of these data is US20100048923A1, “ATR Inhibitor” (priority 2005, published 2010).

Usually IC50 stands for the midpoint of a concentration-inhibition curve.

For experiment [1], the system named is A549 cells. The experiment in a line: G2/M checkpoint: cells containing phosphorylated histone H3 (flow cytometry) in UV-irradiated A549 cells. In kind it is cell-based. Conditions: 30 μM compound, 20 J/m^2 UV, ratio of G2/M (phospho-histone H3) cells to total, Control 1.88, UV irradiation alone 0.52. The method, then: A549 cells were seeded as 3×10^4 cells/cm^2 in the growth medium on 10 cm dish and incubated for overnight. Then, Schizandrin B was added to the medium as final concentration of 30 μM. At 1 hour after the addition of Schizandrin B, the medium was removed, and were irradiated with 20 J/m^2 and 50 J/m^2 of UV. After the UV irradiation, and then the cells were incubated in the Schizandrin B-containing medium having the same concentration as mentioned above for 1 hour. Then, the percentage of the cells containing phosphorylated histone H3 were measured in accordance with a Measurement of the phosphorylated histone H3 as mentioned below. The FIG. 2(A) is a result of flowcytometry as obtained in the treatment with Schizandrin B. In the FIG. 2(A), the encircled portion indicates the cell group in G2/M phase, numbers as mentioned above the portion indicates the ratio of the cells in G2/M phase to the total number of cells. In addition, the FIG. 2(B) indicates a graph showing the ratio.
Ratios of the cells in G2/M phase to the total number of cells were obtained in accordance with the Embodiment 2-1, except that, in the Embodiment 2-1, 20 J/m^2 of UV were irradiated instead of 20 J/m^2 and 50 J/m^2 of UV and the compounds of the formulas (1) to (10) and Angeloyl Gomisin A of a formula (C) (final concentration of 30 μM) as mentioned below were used instead of the final concentration of 30 μM of Schizandrin B. The result is shown in Table 1.
The cells were harvested and fixed with 70% ice-cooled ethanol after the washing with PBS. PBS containing 0.25% Triton X-100 was added, and the cells were stood on ice for 30 minutes. Cells were centrifuged (500×g, 5 minutes) and replaced to PBS containing 1% bovine serum albumin (BSA) and 1 μg of […] (specifically binding to the phosphorylated histone H3 at 13 Serine), and incubated for 4 hours at room temperature.
After the subsequent washes with PBS containing 1% BSA, goat anti-rabbit IgG antibody conjugated with FITC which diluted with 100 times with PBS containing 1% BSA was added, and incubated for 30 minutes at dark place. These cells were counterstained with PI in accordance with the FACS analysis as mentioned below. The percentage of cells containing phosphorylated histone H3 was measured and evaluated with flowcytometry (Beckman-Coulter).
Background: In flow cytometry, cells or beads pass a laser one at a time.

The test system of experiment [2] is P-p53 (Ser15) in A549 cells. In words: Phosphorylation of p53 at serine 15 in UV-irradiated A549 cells (immunoblot). It counts as cell-based. Conditions: Homo sapiens, light or radiation study, 3 h, 30 μM compound, 25 J/m^2 UV, UV irradiation alone = 100%, Control 15.4, read-out: Relative rate of P-p53 (Ser15) band intensity. How it is done: A549 cells were seeded as 3×10^4 cells/cm^2 in the growth medium on 10 cm dish, incubated for overnight, and Schizandrin B was added in the medium as final concentration of 30 μM in the medium. After 1 hour incubation, the medium was removed, irradiated with 20 J/m^2 of UV, and incubated for 3 hours (hereinafter, referred to as “UV-cell group” with regard to the obtained cells).
It should be noted that both groups of the UV-cell group and IR-cell group were cultured in the presence of 50 μM of N-acetyl-L-Leucyl-L-Leucyl-L-norleucinal (Sigma, Mo., USA) (hereinafter, referred to as “LLnL”) from 15 minutes prior to the irradiation to collection of the cells as mentioned below. Protein in the cells were extracted in accordance with a Preparation of proteins as mentioned below, immunoblot analysis was performed with regard to the phosphorylated p53 at 15 serine (P-p53 (Ser 15)), p53 protein (p53), phosphorylated ATM protein at 1981 serine (P-ATM (Ser1981)) and glyceraldehyde-3-phosphate dehydrogenase (GAPDH) in accordance with an Immunoblot analysis as mentioned below.
The dose-depended effect of Schizandrin B on the phosphorylation of p53 in A549 cells irradiated with UV A549 cells were seeded as 3×10^4 cells/cm^2 in the growth medium on 10 cm dish, incubated for overnight, and Schizandrin B was added in the medium as final concentration of 10, 30 and 100 μM in the medium. After 1 hour incubation, the medium was removed, and the cells were irradiated with 20 J/m^2 of UV. The cells were treated with LLnL as mentioned in Embodiment 4. Then, expression of p53 and phosphorylated p53 at 15 serine (P-p53 (Ser15)) in the cells treated with the same concentration of Schizandrin B as mentioned above was examined.
Expression of phosphorylated p53 at 15 serine (P-p53 (Ser15)) was examined in accordance with Embodiment 5-1, except that, in Embodiment 5-1, compounds of the Formulas (1) to (10) and the compound of the Formula (C) (final concentration of 30 μM) were added in the medium instead of the addition of final concentration of 10, 30 and 100 μM of Schizandrin B in the medium, and 25 J/m^2 of UV was irradiated instead of the 20 J/m^2 of UV irradiation. Electrophoresis image as obtained is shown in FIG. 5-2, and relative ratio of the band intensity corresponding to P-p53 (Ser15) to that of the band as obtained in the irradiation with UV as 100% is shown in Table 2.
50 μg of cellular proteins (as prepared in accordance with the Preparation of proteins as mentioned below) were applied to SDS polyacrylamide gel electrophoresis (12.5%), the electrophored proteins were transferred into the nitrocellulose membrane in accordance with the standard method, and blocking reaction was performed for 1 hour at room temperature using Tris-buffered saline (TBS-T) containing 5% skim milk and 0.1% Triton X-100. So obtained membrane were incubated with the desired adequate antibodies as mentioned below for 16 hours at 4° C., and then incubated with secondary anti-serum (corresponding to the animal originated from the desired antibodies) conjugated with horseradish peroxidase for 1 hour at room temperature. Then, the target proteins were visualized with ECL reaction kit (Amersham) and chemiluminescence film (Amersham) to obtain a protein image.
The cells were harvested with ice-cooled PBS from the culture dish, and were washed twice with cooled PBS. Then, it was centrifuged to obtain cell pellet. The pellet was solubilized with UTB buffer as mentioned below to prepare cellular protein. The content of the proteins was measured with Protein Assay kit (Bio-Rad).

Experiment [3] has as its target T1, ATR (Homo sapiens, UniProt Q13535).
T1 construct: made in house; host or cells: 293T cells (ATCC: CRL-11268), transient transfection of pcDNA3.1 plasmid, anti-Flag M2 immunoprecipitate
The experiment in a line: ATR protein kinase activity (Flag-ATR immunoprecipitate, PHAS-I substrate, 32P-ATP). In kind it is biochemical. Conditions: 300 μM ATP, 20 minutes at 30° C., estimated from lines, read-out: IC50 for the phosphorylating activity of ATR. How it is done:
1 μg of recombinant PHAS-I protein (Alexis Biochemicals) as a substrate, and Schizandrin B were added to mixtures of ATR and ATM for the kinase reaction as prepared in accordance with a Preparation of mixtures of ATR and ATM for kinase reaction as follows. 300 μM of ATP containing a suitable concentration of ^32P-ATP was added to react it for 20 minutes at 30° C. 4 volumes of SDS sample loading buffer (200 mM Tris-HCl (pH 6.8), 400 mM DTT and 8% SDS) were added to the reaction mixture to stop the reaction, and the obtained mixture is applied to 12% SDS-PAGE. After the gel as obtained was dried, […] corresponding to the band of ^32P—PHAS-I in the mixture was evaluated using autoradiography method. In the Figure, (A) and (B) indicate the relative activities of ATR and ATM, respectively, the horizontal axis indicates the concentration of Schizandrin B, and the vertical axis indicates the relative value of the count as obtained in Schizandrin B-treated group to that of no-addition of Schizandrin B group.
IC50s of the compounds for the phosphorylating activity of ATR were estimated based on the lines as obtained in accordance with Embodiment 7-1, except that, in Embodiment 7-1, the compounds of the Formulas (1) to (5) and the compound of the Formula (C) were used instead of Schizandrin B. The values are shown in Table 3.
ATR conjugated with Flag as constructed with conventional method as disclosed in, e.g. Non-Patent-Related Document 9 was used for a mixture of ATR for kinase reaction. In detail, Bam H1H-Swa I fragment of ATR gene (Sequence Number 4) (1 kb) was substituted with a gene having the ATR gene and Flag ([…]) at N terminal and the gene was amplified with PCR. So obtained gene product was introduced into pcDNA3.1, and target product was obtained from the plasmid. In addition, ATM conjugated with Flag as manufactured in accordance with the well-known method as disclosed in e.g. non-patent related documents 10 and 11 and using Quikchange site-Directed Mutagenesis Kit (Stratagene) was used for a mixture of ATM for kinase reaction.
These ATR and ATM plasmids tagged with Flag (Sequence Numbers 4 and 5) were transfected in 293T cells (ATCC: CRL-11268) by Calcium phosphate method as followed. After 2 days, 5 mg of cellular proteins were prepared using IP buffer in accordance with the Preparation of proteins as mentioned below instead of the UTB buffer, and ATR and ATM were immuno-precipitated with 20 μg of anti-Flag M2 monoclonal antibody (Sigma) for 4 hours at […], independently. The precipitates were incubated with beads conjugated with protein G cepharose (Amersham). […]

For experiment [4], the target named is T2, ATM (Homo sapiens, UniProt Q13315).
T2 construct: made in house; host or cells: 293T cells (ATCC: CRL-11268), transient transfection, anti-Flag M2 immunoprecipitate
Conditions: caffeine, literature; cited from earlier work.

The structures appear in SMILES notation.

T1 sequence (Q13535 whole entry A92R): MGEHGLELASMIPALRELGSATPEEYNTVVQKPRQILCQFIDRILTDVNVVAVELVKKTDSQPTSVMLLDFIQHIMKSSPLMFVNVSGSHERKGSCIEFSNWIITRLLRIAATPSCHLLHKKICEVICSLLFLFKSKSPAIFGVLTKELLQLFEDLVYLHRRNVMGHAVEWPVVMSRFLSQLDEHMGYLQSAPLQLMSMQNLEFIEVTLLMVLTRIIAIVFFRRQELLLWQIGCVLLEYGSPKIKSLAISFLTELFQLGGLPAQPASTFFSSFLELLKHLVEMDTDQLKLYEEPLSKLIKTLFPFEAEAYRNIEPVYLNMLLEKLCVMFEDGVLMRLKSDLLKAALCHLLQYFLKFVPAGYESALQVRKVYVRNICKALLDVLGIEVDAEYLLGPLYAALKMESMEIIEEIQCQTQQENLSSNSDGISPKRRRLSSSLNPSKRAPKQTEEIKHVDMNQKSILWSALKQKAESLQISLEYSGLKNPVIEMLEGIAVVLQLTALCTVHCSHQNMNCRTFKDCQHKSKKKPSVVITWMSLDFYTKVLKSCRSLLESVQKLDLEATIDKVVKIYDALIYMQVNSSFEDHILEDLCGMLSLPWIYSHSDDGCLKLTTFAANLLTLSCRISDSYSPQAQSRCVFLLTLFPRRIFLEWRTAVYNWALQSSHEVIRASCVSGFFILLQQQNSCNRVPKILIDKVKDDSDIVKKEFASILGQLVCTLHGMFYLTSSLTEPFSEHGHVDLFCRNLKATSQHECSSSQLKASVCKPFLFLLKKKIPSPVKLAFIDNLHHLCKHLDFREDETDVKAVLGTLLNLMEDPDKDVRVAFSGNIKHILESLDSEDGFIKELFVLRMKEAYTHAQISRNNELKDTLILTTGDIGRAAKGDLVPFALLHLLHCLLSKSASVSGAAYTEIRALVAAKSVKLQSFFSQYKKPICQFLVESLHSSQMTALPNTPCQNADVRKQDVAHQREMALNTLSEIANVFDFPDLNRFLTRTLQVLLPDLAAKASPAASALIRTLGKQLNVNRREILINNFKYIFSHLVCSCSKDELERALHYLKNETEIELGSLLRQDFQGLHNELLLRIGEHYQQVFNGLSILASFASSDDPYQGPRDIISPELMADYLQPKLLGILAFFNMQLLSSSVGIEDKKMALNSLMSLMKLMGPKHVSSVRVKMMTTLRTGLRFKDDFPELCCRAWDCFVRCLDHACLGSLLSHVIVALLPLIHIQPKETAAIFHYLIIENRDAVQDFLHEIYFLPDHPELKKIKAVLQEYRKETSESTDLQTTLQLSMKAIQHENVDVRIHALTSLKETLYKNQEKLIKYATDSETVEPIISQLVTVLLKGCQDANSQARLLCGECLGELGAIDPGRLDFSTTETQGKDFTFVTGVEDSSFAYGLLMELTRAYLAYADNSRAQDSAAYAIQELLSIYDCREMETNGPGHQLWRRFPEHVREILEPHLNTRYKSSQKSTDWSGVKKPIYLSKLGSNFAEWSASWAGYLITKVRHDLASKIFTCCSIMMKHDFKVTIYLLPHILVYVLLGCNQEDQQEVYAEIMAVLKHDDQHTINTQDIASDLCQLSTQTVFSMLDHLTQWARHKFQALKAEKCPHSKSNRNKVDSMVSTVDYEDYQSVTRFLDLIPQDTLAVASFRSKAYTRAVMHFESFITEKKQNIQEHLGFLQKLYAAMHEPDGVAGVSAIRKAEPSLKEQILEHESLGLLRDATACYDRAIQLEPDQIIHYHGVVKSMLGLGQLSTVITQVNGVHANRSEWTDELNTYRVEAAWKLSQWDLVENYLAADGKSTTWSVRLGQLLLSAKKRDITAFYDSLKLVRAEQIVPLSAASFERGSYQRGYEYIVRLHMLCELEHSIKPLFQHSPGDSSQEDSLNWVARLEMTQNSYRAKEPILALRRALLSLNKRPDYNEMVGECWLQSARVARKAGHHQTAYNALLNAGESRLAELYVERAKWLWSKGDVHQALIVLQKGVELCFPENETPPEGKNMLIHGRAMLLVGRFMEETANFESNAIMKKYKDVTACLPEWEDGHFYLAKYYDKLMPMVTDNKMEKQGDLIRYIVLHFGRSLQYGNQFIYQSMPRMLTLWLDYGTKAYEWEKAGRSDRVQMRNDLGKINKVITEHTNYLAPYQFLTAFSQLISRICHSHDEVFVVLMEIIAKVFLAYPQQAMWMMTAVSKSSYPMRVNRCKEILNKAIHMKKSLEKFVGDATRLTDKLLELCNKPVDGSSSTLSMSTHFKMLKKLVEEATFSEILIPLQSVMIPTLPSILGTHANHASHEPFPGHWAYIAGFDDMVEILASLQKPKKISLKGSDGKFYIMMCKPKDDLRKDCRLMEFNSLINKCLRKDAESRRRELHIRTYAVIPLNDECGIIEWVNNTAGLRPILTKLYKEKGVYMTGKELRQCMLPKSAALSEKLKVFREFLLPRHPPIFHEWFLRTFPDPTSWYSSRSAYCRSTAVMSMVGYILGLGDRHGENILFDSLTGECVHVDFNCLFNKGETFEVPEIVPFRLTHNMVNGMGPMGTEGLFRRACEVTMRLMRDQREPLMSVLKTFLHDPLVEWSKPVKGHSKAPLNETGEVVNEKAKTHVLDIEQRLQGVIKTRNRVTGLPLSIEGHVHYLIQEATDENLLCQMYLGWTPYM

As for `C/C=C(\C)C(=O)O[C@@]1(C)Cc2cc(OC)c(OC)c(OC)c2-c2c(cc3c(c2OC)OCO3)C[C@@H]1C` (atropisomer, axis not shown) [AGA, Angeloyl Gomisin A, reference compound], the “Rate of Divided cells” value in experiment [1] is listed as 1.04 ± 0.06%. The activity at 30 µM in experiment [2] turned out to be 92.2%. The IC50 in experiment [3] was 111 µM.

In the case of `COc1cc2c(c(OC)c1OC)-c1c(cc3c(c1OC)OCO3)C[C@H](C)[C@@](C)(O)C2` (atropisomer, axis not shown) [GA, Gomisin A], the “Rate of Divided cells” value in experiment [1] was 0.90 ± 0.07%. Besides, in experiment [2], the activity at 30 µM stood at 58.3%.

For the compound `C/C=C(/C)C(=O)O[C@H]1c2cc(OC)c(OC)c(OC)c2-c2c(cc3c(c2OC)OCO3)C[C@H](C)[C@@]1(C)O` (atropisomer, axis not shown) [GB, Gomisin B], the “Rate of Divided cells” value in experiment [1] turned out to be 0.85 ± 0.12%. In experiment [2], the activity at 30 µM was determined as 60.9%.

Turning to `COc1cc2c(c(OC)c1OC)-c1c(cc3c(c1OC)OCO3)C[C@H](C)[C@@](C)(O)[C@H]2OC(=O)c1ccccc1` (atropisomer, axis not shown) [GC, Gomisin C], in experiment [3], the IC50 was 10.6 µM.

For `COc1cc2c(c(OC)c1OC)-c1c(cc3c(c1OC)OCO3)C[C@H](C)[C@](C)(O)[C@H]2OC(=O)c1ccccc1` (atropisomer, axis not shown) [GC, Gomisin C], the “Rate of Divided cells” value in experiment [1] was 1.16 ± 0.16%. In addition, the activity at 30 µM in experiment [2] worked out at 49.8%.

Consider `COc1cc2c(c(OC)c1OC)-c1c(cc3c(c1OC)OCO3)[C@H](OC(=O)c1ccccc1)[C@](C)(O)[C@@H](C)C2` (atropisomer, axis not shown) [GG, Gomisin G], for which the “Rate of Divided cells” value in experiment [1] is on record as 1.13 ± 0.05%. Moreover, the activity at 30 µM in experiment [2] was determined as 51.3%. Further, the half-maximal inhibitory concentration (IC50) in experiment [3] was 32 µM.

As to `COc1cc2c(c(O)c1OC)-c1c(cc(OC)c(OC)c1OC)C[C@](C)(O)[C@@H](C)C2` (atropisomer, axis not shown) [GH, Gomisin H], the “Rate of Divided cells” value in experiment [1] is 1.42 ± 0.03%. Moreover, in experiment [2], the activity at 30 µM came out at 50.3%. The IC50 in experiment [3] was 45.7 µM.

With `COc1cc2c(c(OC)c1OC)-c1c(cc3c(c1OC)OCO3)C[C@@H](C)[C@@H](C)C2` (atropisomer, axis not shown) [GN, Gomisin N], in experiment [1], the “Rate of Divided cells” value was determined as 0.88 ± 0.12%. The activity at 30 µM in experiment [2] was determined as 38.4%.

For `COc1cc2c(c(OC)c1OC)-c1c(cc(OC)c(OC)c1OC)C[C@](C)(O)[C@@H](C)C2` (atropisomer, axis not shown) [S, Schizandrin], the “Rate of Divided cells” value in experiment [1] is recorded as 0.68 ± 0.04%. Further, the activity at 30 µM in experiment [2] came out at 42.7%.

For `COc1c2c(cc3c1-c1c(cc4c(c1OC)OCO4)C[C@H](C)[C@H](C)C3)OCO2` (atropisomer, axis not shown) [SchC, Schizandrin C], the “Rate of Divided cells” value in experiment [1] stood at 0.68 ± 0.11%. Moreover, the activity at 30 µM in experiment [2] was determined as 42.6%.

On to `Cn1c(=O)c2c(ncn2C)n(C)c1=O` [Caffeine, 3,7-dihydro-1,3,7-trimethyl-1H-purine-2,6-dione], for which, in experiment [4], the “IC50 for ATM relative to that of ATR” value is recorded as “⅕”.
